This passage reports EC50 and Emax results from US12275733B2, “Substituted pyrido[3,4-b]indoles for the treatment of cartilage disorders” (Sanofi, priority 2016, dated 2025).

As a reminder, the EC50 is the concentration that produces a half-maximal response. Lower therefore signals higher potency in that assay. Usually Emax stands for the size of the effect at its maximum, as opposed to the concentration needed.

The test system of this test is ATDC5 cells. Put plainly: Chondrogenesis activity assay in ATDC5 cells (collagen type II induction, immunofluorescence). To be noted: Mus musculus; for EC50: collagen type II induction in ATDC5 cells, concentration reaching 50% of maximum induction; for Emax: maximum percent induction of collagen type II relative to internal reference compound at 10 μM, ATDC5 cells. Type of test: cell-based, mouse. In outline:
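Mouse ATDC5 cells in insulin (10 μg/ml)-containing DMEM/F12 differentiation medium with 5% FCS were exposed to compound, typically 40 nM–10 μM at 0.1% DMSO, for 4 days at 37 °C. Intracellular collagen type II was quantified by Alexa Fluor 488 immunostaining with high-content imaging, relative to DMSO and a 10 μM reference compound.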

`Cc1nccc2c3cc(Cl)cc(-c4cnc5c(c4)OCCN5C)c3n(CC3CC3)c12` [Example 49, 6-Chloro-9-cyclopropymethyl-1-methyl-8-(4-methyl-3,4-dihydro-2H-pyrido[3,2-b][1,4]oxazin-7-yl)-9H-pyrido[3,4-b]indole] displayed an EC50 of 41 nM and an Emax of under 20%.
As to `Cc1nccc2c1[nH]c1c(-c3ccc(OCC4(C)COC4)cc3)cc(Cl)cc12` [Example 182, 6-Chloro-1-methyl-8-[4-(3-methyl-oxetan-3-ylmethoxy)-phenyl]-9H-pyrido[3,4-b]indole], the midpoint of the response, the EC50, lay at 220 nM and the Emax is over 80%.
Taken in the same sequence, the figures for `Cc1nccc2c1[nH]c1c(-c3ccc(-n4ccccc4=O)nc3)cc(Cl)cc12` [Example 107, 5′-(6-Chloro-1-methyl-9H-pyrido[3,4-b]indol-8-yl)-[1,2′]bipyridinyl-2-one] were 560 nM and 20 to 50%.
For `Cc1nccc2c1[nH]c1c(-c3ccc(OC(C)C)nc3)cc(Cl)cc12` [Example 102, 6-Chloro-8-(6-isopropoxy-pyridin-3-yl)-1-methyl-9H-pyrido[3,4-b]indole], the EC50 was 2100 nM and the Emax lay within 20 to 50%.
For the compound `Cc1cc2c([nH]c3c(-c4ccc(OCCn5cccn5)cc4)cc(Br)cc32)c(C)n1` [Example 16, 6-Bromo-1,3-dimethyl-8-[4-(2-pyrazol-1-yl-ethoxy)-phenyl]-9H-pyrido[3,4-b]indole], a half-maximal response (EC50) required 2800 nM and the Emax was 50 to 80%.
For `Cc1nccc2c1[nH]c1c(-c3ccc(Cl)c(C#N)c3Cl)cc(Cl)cc12` [Example 158] the same measures were 1900 nM and over 80%.
For `Cc1nccc2c3cc(Cl)cc(-c4ccc(N5CCN(C)CC5)nc4)c3n(CC3CC3)c12` [Example 51, 6-Chloro-9-cyclopropylmethyl-1-methyl-8-[6-(4-methyl-piperazin-1-yl)-pyridin-3-yl]-pyrido[3,4-b]indole] the same measures were over 10000 nM and under 20%.
For `Cc1cc(OC(C)C)ccc1-c1cc(Cl)cc2c1[nH]c1c(C)nccc12` [Example 176, 6-Chloro-8-(4-isopropoxy-2-methyl-phenyl)-1-methyl-9H-pyrido[3,4-b]indole], the EC50 was over 10000 nM and the Emax lay within 20 to 50%.
`FC(F)(F)Cn1c2cnccc2c2cc(Cl)cc(-c3ccc(N4CCOCC4)nc3)c21` [Example 86, 6-Chloro-8-(6-morpholin-4-yl-pyridin-3-yl)-9-(2,2,2-trifluoro-ethyl)-9H-pyrido[3,4-b]indole] showed an EC50 of 750 nM and an Emax of over 80%.
In turn, `FC(F)(F)Cn1c2cnccc2c2cc(Cl)cc(-c3cc(-c4ccccc4)no3)c21` [Example 136, 6-Chloro-8-(3-phenyl-isoxazol-5-yl)-9-(2,2,2-trifluoro-ethyl)-9H-pyrido[3,4-b]indole] yielded an EC50 of 4100 nM and an Emax of 50 to 80%.
For `Cn1cc(-c2cc(Cl)cc3c4ccncc4n(CC4CC4)c23)cn1` [Example 287, 6-Chloro-9-cyclopropylmethyl-8-(1-methyl-1H-pyrazol-4-yl)-9H-pyrido[3,4-b]indole] the same measures were 230 nM and 50 to 80%.
Taken in the same sequence, the figures for `COc1ncc(-c2cc(Cl)cc3c4ccncc4n(CC(F)(F)F)c23)cc1F` [Example 85, 6-Chloro-8-(5-fluoro-6-methoxy-pyridin-3-yl)-9-(2,2,2-trifluoro-ethyl)-9H-pyrido[3,4-b]indole] were over 10000 nM and 20 to 50%.
On to `Cc1nccc2c1[nH]c1c(-c3ccc(Cl)nc3Cl)cc(Cl)cc12` [Example 64, 6-Chloro-8-(2,6-dichloro-pyridin-3-yl)-1-methyl-9H-pyrido[3,4-b]indole], for which the EC50 amounted to 3900 nM and the Emax was over 80%.
In turn, `FC(F)(F)Cn1c2cnccc2c2cc(Cl)cc(-c3ccncc3)c21` [Example 127, 6-Chloro-8-pyridin-4-yl-9-(2,2,2-trifluoro-ethyl)-9H-pyrido[3,4-b]indole] yielded a 50% effective concentration (EC50) of 380 nM and an Emax of 50 to 80%.
With `Cc1nccc2c1[nH]c1c(-c3cnn(Cc4cccnc4)c3)cc(Cl)cc12` [Example 115, 6-Chloro-1-methyl-8-(1-pyridin-3-ylmethyl-1H-pyrazol-4-yl)-9H-pyrido[3,4-b]indole], the EC50 was determined as 490 nM and the Emax was over 80%.
For `Cc1nccc2c1[nH]c1c(-c3cnn(C)c3)cc(Cl)cc12` [Example 151, 6-Chloro-1-methyl-8-(1-methyl-1H-pyrazol-4-yl)-9H-pyrido[3,4-b]indole] the same measures were 540 nM and 50 to 80%.
Taken in the same sequence, the figures for `COc1cc(OC)nc(COc2cccc(-c3cc(Cl)cc4c3[nH]c3c(C)nccc34)c2)n1` [Example 272, 6-Chloro-8-[3-(4,6-dimethoxy-pyrimidin-2-ylmethoxy)-phenyl]-1-methyl-9H-pyrido[3,4-b]indole] were 1900 nM and over 80%.
As for `Cc1nccc2c1[nH]c1c(-c3cnc(-n4cccn4)nc3)cc(Cl)cc12` [Example 237, 6-Chloro-1-methyl-8-(2-pyrazol-1-yl-pyrimidin-5-yl)-9H-pyrido[3,4-b]indole], the EC50 was determined as 500 nM and the Emax is over 80%.
For the compound `CCn1c2c(-c3cnn(Cc4ccc(C)nc4C)c3)cc(Cl)cc2c2ccnc(C)c21` [Example 121, 6-Chloro-8-[1-(2,6-dimethyl-pyridin-3-ylmethyl)-1H-pyrazol-4-yl]-9-ethyl-1-methyl-9H-pyrido[3,4-b]indole], the EC50 is 590 nM and the Emax was over 80%.
Taken in the same sequence, the figures for `Cc1nccc2c1[nH]c1c(-c3cccc(OCCN4CCOCC4)c3)cc(Cl)cc12` [Example 249, 6-Chloro-1-methyl-8-[3-(2-morpholin-4-yl-ethoxy)-phenyl]-9H-pyrido[3,4-b]indole] were over 3300 nM and 20 to 50%.
Take `FC(F)(F)Cn1c2cnccc2c2cc(Cl)cc(-c3cnccc3Cl)c21` [Example 69, 6-Chloro-8-(4-chloro-pyridin-3-yl)-9-(2,2,2-trifluoro-ethyl)-9H-pyrido[3,4-b]indole]: the EC50 came to 2000 nM and the Emax lay within 50 to 80%.
The compound `FC(F)(F)Cn1c2cnccc2c2cc(Cl)cc(-c3ccc(N4CCCC4)nc3)c21` [Example 81, 6-Chloro-8-(6-pyrrolidin-1-yl-pyridin-3-yl)-9-(2,2,2-trifluoro-ethyl)-9H-pyrido[3,4-b]indole] had an EC50 of 4100 nM and an Emax of over 80%.
For `CCc1nc(C)cc2c3cc(Br)cc(-c4cnn(C)c4)c3n(CC)c12` [Example 210, 6-Bromo-1,9-diethyl-3-methyl-8-(1-methyl-1H-pyrazol-4-yl)-9H-pyrido[3,4-b]indole] the same measures were over 3300 nM and under 20%.
Turning to `FC(F)(F)Cn1c2cnccc2c2cc(Cl)cc(-c3cnn(CC4CC4)c3)c21` [Example 173, 6-Chloro-8-(1-cyclopropylmethyl-1H-pyrazol-4-yl)-9-(2,2,2-trifluoro-ethyl)-9H-pyrido[3,4-b]indole], the EC50 was 1900 nM and the Emax was over 80%.
For `CCn1c2c(-c3cnn(CC4OCCO4)c3)cc(Cl)cc2c2ccnc(C)c21` [Example 276, 6-Chloro-8-(1-[1,3]dioxolan-2-ylmethyl-1H-pyrazol-4-yl)-9-ethyl-1-methyl-9H-pyrido[3,4-b]indole], the response was half-maximal at 420 nM (EC50) and the Emax is over 80%.
